Measurements taken from the supplement of paper PMC10307832.

Key:
Assay in all cases: relative viability (nuclei count vs DMSO), 5 days (fraction); higher = more cells survive
Carboplatin + Decitabine = compound: C1CC(C1)(C(=O)O)C(=O)O.[NH2-].[NH2-].[Pt+2] [Carboplatin] + Nc1ncn([C@H]2C[C@H](O)[C@@H](CO)O2)c(=O)n1 [Decitabine] (partner 2 µM)
Procedure, shortened: (§1)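 A single step with final 0.05% Triton X-100, 1% formaldehyde and 1 ug/ml Hoechst fixed the cells and stained nuclei 5 days after treatment. Lung cancer cell lines in 1536-well plates had been treated by pin tool the day after seeding with one drug alone or a fixed anchor-drug dose plus five library-drug doses (not always all listed) in √10 steps, and nuclei were counted on 4× images. Relative viability is the ratio of nuclei in treated wells to nuclei in vehicle wells, taken as the median of duplicate plates.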

Carboplatin + Linsitinib = compound: C1CC(C1)(C(=O)O)C(=O)O.[NH2-].[NH2-].[Pt+2] [Carboplatin] + C[C@]1(O)C[C@@H](c2nc(-c3ccc4ccc(-c5ccccc5)nc4c3)c3c(N)nccn32)C1 [Linsitinib] (partner 1 µM)
Procedure, shortened: as §1

MLN4924 + Bortezomib = compound: NS(=O)(=O)OC[C@@H]1C[C@@H](n2ccc3c(N[C@H]4CCc5ccccc54)ncnc32)C[C@@H]1O [MLN4924] + CC(C)C[C@H](NC(=O)[C@H](Cc1ccccc1)NC(=O)c1cnccn1)B(O)O [Bortezomib] (partner 0.002 µM)
Procedure, shortened: as §1

Carboplatin + Crizotinib = compound: C1CC(C1)(C(=O)O)C(=O)O.[NH2-].[NH2-].[Pt+2] [Carboplatin] + C[C@@H](Oc1cc(-c2cnn(C3CCNCC3)c2)cnc1N)c1c(Cl)ccc(F)c1Cl [Crizotinib] (partner 1 µM)
Procedure, shortened: as §1

Row | Cell Line | relative viability (Carboplatin + Decitabine; first compound 0.08 µM) | relative viability (Carboplatin + Decitabine; first compound 0.253 µM) | relative viability (Carboplatin + Decitabine; first compound 0.8 µM) | relative viability (Carboplatin + Decitabine; first compound 2.53 µM) | relative viability (Carboplatin + Decitabine; first compound 8 µM) | relative viability (Carboplatin + Linsitinib; first compound 0.08 µM) | relative viability (Carboplatin + Linsitinib; first compound 0.253 µM) | relative viability (Carboplatin + Linsitinib; first compound 0.8 µM) | relative viability (Carboplatin + Linsitinib; first compound 2.53 µM) | relative viability (Carboplatin + Linsitinib; first compound 8 µM) | relative viability (MLN4924 + Bortezomib; first compound 0.04 µM) | relative viability (MLN4924 + Bortezomib; first compound 0.1265 µM) | relative viability (MLN4924 + Bortezomib; first compound 0.4 µM) | relative viability (MLN4924 + Bortezomib; first compound 1.265 µM) | relative viability (MLN4924 + Bortezomib; first compound 4 µM) | relative viability (Carboplatin + Crizotinib; first compound 0.08 µM) | relative viability (Carboplatin + Crizotinib; first compound 0.253 µM) | relative viability (Carboplatin + Crizotinib; first compound 0.8 µM) | relative viability (Carboplatin + Crizotinib; first compound 2.53 µM) | relative viability (Carboplatin + Crizotinib; first compound 8 µM)
1 | 201T | 0.869 | 0.822 | 0.865 | 0.791 | 0.76 | 1.06 | 1.04 | 0.976 | 1 | 0.962 | 1.16 | 1.04 | 1.08 | 0.4 | 0.392 | 1.03 | 1.06 | 1.02 | 1.06 | 0.994
2 | A549 | 0.259 | 0.338 | 0.279 | 0.231 | 0.18 | 0.715 | 0.717 | 0.666 | 0.522 | 0.446 |  |  |  |  |  | 0.963 | 0.789 | 0.697 | 0.598 | 0.294
3 | A-427 | 0.593 | 0.562 | 0.571 | 0.527 | 0.512 | 1.07 | 1.08 | 1.03 | 1.02 | 1.12 | 0.622 | 0.447 | 0.231 | 0.195 | 0.197 | 0.91 | 1.13 | 0.894 | 0.976 | 0.799
4 | ABC-1 | 1.02 | 1.12 | 1.01 | 0.931 | 0.52 | 0.633 | 0.939 | 0.779 | 0.864 | 0.703 | 0.344 | 0.331 | 0.259 | 0.274 | 0.211 | 1.35 | 1.18 | 0.885 | 0.91 | 0.498
5 | BEN | 0.87 | 0.714 | 0.691 | 0.634 | 0.599 | 1.01 | 1.05 | 0.722 | 0.748 | 0.777 | 0.687 | 0.51 | 0.267 | 0.16 | 0.122 | 1.15 | 0.946 | 0.78 | 0.79 | 0.761
6 | CAL-12T |  |  |  |  |  | 0.803 | 0.913 | 0.838 | 0.809 | 0.797 |  | 0.971 | 0.659 | 0.369 | 0.22 | 0.856 | 0.7 | 0.738 | 0.66 | 0.707
7 | COR-L23 | 0.402 | 0.514 | 0.412 | 0.361 | 0.21 | 0.976 | 0.91 | 0.754 | 0.529 | 0.297 | 0.936 | 0.915 | 0.587 | 0.186 | 0.105 | 0.561 | 0.645 | 0.606 | 0.48 | 0.28
8 | COR-L 105 | 0.648 | 0.611 | 0.687 | 0.515 | 0.398 | 0.88 | 1.02 | 0.681 | 0.792 | 0.572 | 0.629 | 0.396 | 0.252 | 0.242 | 0.41 | 0.814 | 0.812 | 0.757 | 0.609 | 0.501
9 | Calu-6 |  |  |  |  |  | 0.988 | 0.948 | 0.943 | 0.967 | 0.601 | 1 | 0.557 | 0.219 | 0.152 | 0.158 | 0.916 | 0.924 | 0.763 | 0.639 | 0.338
10 | ChaGo-K-1 | 0.563 | 0.527 | 0.464 | 0.413 | 0.388 |  |  |  |  |  | 0.535 | 0.53 | 0.436 | 0.337 | 0.278 | 1.14 | 1.09 | 0.943 | 0.647 | 0.579
11 | EBC-1 |  |  |  |  |  | 0.957 | 0.993 | 0.896 | 0.918 | 0.835 | 0.403 | 0.269 | 0.17 | 0.117 | 0.142 | 0.186 | 0.202 | 0.175 | 0.182 | 0.2
12 | EKVX | 0.4 | 0.331 | 0.389 | 0.307 | 0.283 | 1.13 | 1.07 | 0.849 | 0.847 | 0.893 | 0.806 | 0.711 | 0.475 | 0.236 | 0.135 | 1.19 | 1.09 | 0.985 | 0.875 | 0.947
13 | EMC-BAC-2 | 1.01 | 0.944 | 0.999 | 0.922 | 0.716 | 0.84 | 0.799 | 0.801 | 0.804 | 0.717 | 0.96 | 0.842 | 0.274 | 0.162 | 0.155 | 0.738 | 0.755 | 0.76 | 0.681 | 0.642
14 | EPLC-272H | 0.402 | 0.403 | 0.361 | 0.366 | 0.355 | 1.17 | 1.32 | 1.01 | 1.11 | 1.01 | 0.808 | 0.927 | 0.131 | 0.163 | 0.177 | 0.975 | 1.05 | 0.892 | 0.888 | 0.937
15 | H3255 | 0.775 | 0.504 | 0.687 | 0.622 | 0.421 | 0.971 | 0.941 | 0.949 | 0.87 | 0.722 | 0.559 | 0.707 | 0.262 | 0.2 | 0.32 | 0.874 | 0.884 | 0.825 | 0.79 | 0.726
